Experiments:
[1] = Brain slice method, unbound volume of distribution in the brain (rat); type: in vitro ADME; details: SD rat brain slices, 5 h incubation at 37°C; mean (standard deviation)
Description: (§1) Drug-naïve male Sprague–Dawley 250–300 g rats and Naval Medical Research Institute (NMRI) 25–30 g mice were used (Taconic, Lille Skensved, Denmark).
(§2) The composition of artificial cerebrospinal fluid or extracellular fluid (aECF) is crucial. […] Ascorbic acid is used as a natural free-radical scavenger to protect the cell membranes from lipid peroxidation and the brain slices from swelling [21].
(§3) When deciding on the compounds of each cassette, the pKa values of the compounds should be taken into account. Because high concentrations of weak bases can increase the pH of the acidic intracellular compartments, the extent of lysosomal trapping of a weak base could be affected by the existence of another weak base. […] Consequently, it is recommended that the final aECF concentration of each studied compound in the cassette should be 100–200 nM and the total concentration of the studied compounds should not exceed 1 μM [18].
(§4) Drug-naïve rats/mice are anesthetized with inhalation anesthesia using 5% isoflurane. When deep anesthesia is reached, up to 10 ml of blood (rats) is collected intracardially. The animal is then decapitated and the skull quickly opened. The isolated brain is immediately placed into blank ice-cold aECF saturated with oxygen. In our experience, the brains should be sliced within 15–20 minutes of harvesting to retain their viability.
(§5) After discarding the first one or two brain slices, 6 (rat brain) or 10 (mouse brain) consecutive 300 μm brain slices are cut on a coronal plane, starting approximately 1.7 mm anterior to the bregma (rostral striatum).
(§6) The incubation-equilibration process is started by gently transferring the 6 (rat) or 10 (mouse) brain slices from the storage beaker (using a micro double-ended spatula) into one 45 mm high, 80 mm diameter, flat-bottomed glass beaker (Duran Group, VWR, Sweden) containing 15 ml (rat) or 10 ml (mouse) of the aECF containing the selection of drugs to be investigated (Figure 1C). The beaker is then filled with humidified 100% oxygen over the aECF and covered with a custom-fabricated lid (Figure 1D) composed of a Teflon fluorinated ethylene-propylene (FEP) film (50 Å, 12.7 μm thick; DuPont, Katco Ltd, UK) as designed by Potter and DeMarse with minor modifications [23]. A “blank” beaker is also incubated in parallel to check stability of the compounds added into the buffer.
(§7) Finally, the beaker is placed inside the small plastic box in the incubated shaker (e.g. MaxQ4450 Thermo Fisher Scientific, NinoLab, Sweden) for 5 h at 37°C (Figure 1E). Control of the temperature by an external thermometer is recommended. A rotation speed of 45 rpm and oxygen flow of about 75–80 ml per minute through a glass frit apparatus appear sufficient.
(§8) Since the unbound drug concentration in the brain slice interstitial fluid at equilibrium is taken to be equal to the drug concentration in the aECF in the beaker, the presence of any minor debris from the brain tissue should be avoided in the sampled aECF after the 5 h incubation. To achieve this, the beaker needs to sit still for 5 minutes after finishing the incubation before sampling the aECF.

[2] = Brain slice method, unbound volume of distribution in the brain (mouse); details: NMRI mouse brain slices, 5 h incubation at 37°C; mean (standard deviation)
Description: as §1, §2, §3, §4, §5, §6, §7, §8

[3] = Unbound brain-to-plasma concentration ratio (Kp,uu,brain), BBB net flux, from Kp,brain, Vu,brain and fu,plasma; details: Kp,brain corrected for brain tissue uptake (Vu,brain from brain slice method) and plasma protein binding (fu,plasma)
Description: It has been proposed by Fridén et al. that in vitro determination of Vu,brain in combination with in vivo determination of the total brain-to-plasma concentration ratio (Kp,brain) and in vitro determination of the fraction of unbound drug in plasma (fu,plasma) would allow rapid evaluation of unbound brain-to-plasma concentration ratio (Kp,uu,brain) (Figure 2). Moreover, combining Vu,brain with fu,brain would allow estimation of the unbound intracellular-to-extracellular concentration ratio (Kp,uu,cell). It is essential to emphasize that, in terms of predicting Cu,brainISF or Kp,uu,brain, rank ordering of compounds with respect to Vu,brain is futile, since there is no causal relationship.
Complex evaluation of the abovementioned neuropharmacokinetic parameters gives insight to drug distribution in the brain. For instance, analogue of γ-aminobutyric acid gabapentin has Kp,brain equal to 0.64 [26]. However, after correction of Kp,brain for brain tissue uptake (using Vu,brain derived from the brain slice method) and plasma protein binding (using fu,plasma) the BBB net flux was estimated as a 0.14 meaning that only 14% of unbound drug in plasma is passing the BBB. Moreover, after passing BBB gabapentin (substrate to the large neutral amino acid transporter) tends to accumulate in the cells as it could be judged from Kp,uu,cell equal to 4.55 [6].

[4] = cited from earlier work
[5] = cited from earlier work; remark: listed apart in the source

Row | Structure (SMILES) | Vu,brain [1] | Vu,brain [2] | Kp uu [3] | Kp,uu,cell (unbound intracellular-to-extracellular concentration ratio) [4] | Kp,brain (total brain-to-plasma concentration ratio) [5]
1 | COc1ccc2c(c1)c(CC(=O)O)c(C)n2C(=O)c1ccc(Cl)cc1 [Indomethacin] | 14.1 (1.8) ml·g brain^-1 | 12.0 (1.8) ml·g brain^-1 |  |  | 
2 | NCC1(CC(=O)O)CCCCC1 [Gabapentin] | 4.49 (0.29) ml·g brain^-1 | 4.22 (0.93) ml·g brain^-1 | 0.14 | 4.55 | 0.64
3 | CC(=O)O[C@@]12CO[C@@H]1C[C@H](O)[C@@]1(C)C(=O)[C@H](O)C3=C(C)[C@@H](OC(=O)[C@H](O)[C@@H](NC(=O)OC(C)(C)C)c4ccccc4)C[C@@](O)([C@@H](OC(=O)c4ccccc4)[C@H]21)C3(C)C [Docetaxel] | 777 (217) ml·g brain^-1 | 796 (177) ml·g brain^-1 |  |  | 
4 | Fc1ccc([C@@H]2CCNC[C@H]2COc2ccc3c(c2)OCO3)cc1 [Paroxetine] | 714 (72) ml·g brain^-1 | 596 (97) ml·g brain^-1 |  |  | 
5 | CSc1ccc2c(c1)N(CCC1CCCCN1C)c1ccccc1S2 (stereo not shown) [Thioridazine] | 2650 (232) ml·g brain^-1 | 1930 (170) ml·g brain^-1 |  |  | 

— publication PMC3602653, “The brain slice method for studying drug distribution in the CNS” (Fluids and Barriers of the CNS, 2013)
